Assay results: article PMC8286840, “Identifying SARS-CoV-2 antiviral compounds by screening for small molecule inhibitors of Nsp3 papain-like protease” (Biochemical Journal, 2021)
Counter-ions that a name gives are not always drawn. Like-named read-outs stand apart in the source and are kept apart here.

Tests used:
[1] = target: T1, SARS-CoV-2 PLpro (nsp3 1564–1878) (Severe acute respiratory syndrome coronavirus 2, UniProt P0DTD1); assay: biochemical; design: FRET-quenched peptide (Pro3) cleavage by PLpro, 10 min pre-incubation, slope over 20 min, normalised to no-compound control
[2] = target: T1, SARS-CoV-2 PLpro (nsp3 1564–1878); assay: biochemical; design: FRET-quenched peptide (Pro3) cleavage by PLpro, 10 min pre-incubation, slope over 20 min, normalised to no-compound control; remark: listed apart in the source
[3] = read-out: % of control remaining

NC(=O)c1ccccc1 [Benzamide]
remaining activity at 3.75 µM ([1]; Well no.=358, high concentration screen, read-out: % of control remaining): 95.9%
remaining activity at 1.25 µM ([2]; Well no.=358, low concentration screen, read-out: % of control remaining): 96.5%

N=C(N)c1ccccc1 [Benzamidine hydrochloride]
remaining activity at 3.75 µM ([1]; Well no.=223, high concentration screen, read-out: % of control remaining): 99%
remaining activity at 1.25 µM ([2]; Well no.=223, low concentration screen, read-out: % of control remaining): 99.2%

N/C(=N\C(=O)c1nc(Cl)c(N)nc1N)NCc1ccccc1 [Benzamil hydrochloride]
remaining activity at 3.75 µM ([1]; Well no.=267, high concentration screen, read-out: % of control remaining): 92.2%
remaining activity at 1.25 µM ([2]; Well no.=267, low concentration screen, read-out: % of control remaining): 95.3%

N/C(=N\C(=O)c1nc(Cl)c(N)nc1N)NCc1ccccc1 [Benzamil]
remaining activity at 3.75 µM ([1]; Well no.=2050, high concentration screen, read-out: % of control remaining): 104%
remaining activity at 1.25 µM ([2]; Well no.=2050, low concentration screen, read-out: % of control remaining): 104%

CCc1oc2ccccc2c1C(=O)c1cc(Br)c(O)c(Br)c1 [Benzbromarone]
remaining activity at 3.75 µM ([1]; Well no.=8442, high concentration screen, read-out: % of control remaining): 85.1%
remaining activity at 1.25 µM ([2]; Well no.=8442, low concentration screen, read-out: % of control remaining): 86.8%

NS(=O)(=O)c1ccccc1 [Benzenesulfonamide]
remaining activity at 3.75 µM ([1]; Well no.=8398, high concentration screen, read-out: % of control remaining): 101%
remaining activity at 1.25 µM ([2]; Well no.=8398, low concentration screen, read-out: % of control remaining): 97.6%

O=C1CCC(c2ccccc2)(C2CCN(Cc3ccccc3)CC2)C(=O)N1 (stereo not shown) [Benzetimide (hydrochloride)]
remaining activity at 3.75 µM [1, 3]: 97.6%
remaining activity at 1.25 µM [2, 3]: 99.9%

C[C@@]12C[C@@]3(O)O[C@@H](O1)[C@]1(COC(=O)c4ccccc4)[C@H]3C[C@@]12O[C@@H]1O[C@H](COC(=O)c2ccccc2)[C@@H](O)[C@H](O)[C@H]1O [Benzoylpaeoniflorin]
remaining activity at 3.75 µM ([1]; Well no.=6394, high concentration screen, read-out: % of control remaining): 98.2%
remaining activity at 1.25 µM ([2]; Well no.=6394, low concentration screen, read-out: % of control remaining): 101%

NS(=O)(=O)c1cc2c(cc1Cl)N=C(CSCc1ccccc1)NS2(=O)=O [Benzthiazide]
remaining activity at 3.75 µM ([1]; Well no.=8586, high concentration screen, read-out: % of control remaining): 93.6%
remaining activity at 1.25 µM ([2]; Well no.=8586, low concentration screen, read-out: % of control remaining): 98.4%

CN1[C@@H]2CC[C@H]1C[C@@H](OC(c1ccccc1)c1ccccc1)C2 [Benztropine (mesylate)]
remaining activity at 3.75 µM ([1]; Well no.=8235, high concentration screen, read-out: % of control remaining): 99.9%
remaining activity at 1.25 µM ([2]; Well no.=8235, low concentration screen, read-out: % of control remaining): 100%

CN1[C@@H]2CC[C@H]1C[C@@H](OC(c1ccccc1)c1ccccc1)C2 [Benztropine mesylate]
remaining activity at 3.75 µM ([1]; Well no.=177, high concentration screen, read-out: % of control remaining): 104%
remaining activity at 1.25 µM ([2]; Well no.=177, low concentration screen, read-out: % of control remaining): 104%

CN(C)CCCOc1nn(Cc2ccccc2)c2ccccc12 [Benzydamine]
remaining activity at 3.75 µM ([1]; Well no.=2302, high concentration screen, read-out: % of control remaining): 96.1%
remaining activity at 1.25 µM ([2]; Well no.=2302, low concentration screen, read-out: % of control remaining): 95.4%

O=C(O)CCCN1CCC(O[C@@H](c2ccc(Cl)cc2)c2ccccn2)CC1 [Bepotastine (Beslilate)]
remaining activity at 3.75 µM ([1]; Well no.=6333, high concentration screen, read-out: % of control remaining): 93.3%
remaining activity at 1.25 µM ([2]; Well no.=6333, low concentration screen, read-out: % of control remaining): 97.3%

O=C(O)CCCN1CCC(O[C@@H](c2ccc(Cl)cc2)c2ccccn2)CC1 [Bepotastine Besilate]
remaining activity at 3.75 µM ([1]; Well no.=5267, high concentration screen, read-out: % of control remaining): 91.2%
remaining activity at 1.25 µM ([2]; Well no.=5267, low concentration screen, read-out: % of control remaining): 91.9%

COc1c2ccoc2cc2oc(=O)ccc12 [Bergapten]
remaining activity at 3.75 µM ([1]; Well no.=3789, high concentration screen, read-out: % of control remaining): 87%
remaining activity at 1.25 µM ([2]; Well no.=3789, low concentration screen, read-out: % of control remaining): 92.7%

COc1c(O)cc2c(c1O)[C@@H]1O[C@H](CO)[C@@H](O)[C@H](O)[C@H]1OC2=O [Bergenin]
remaining activity at 3.75 µM ([1]; Well no.=3517, high concentration screen, read-out: % of control remaining): 107%
remaining activity at 1.25 µM ([2]; Well no.=3517, low concentration screen, read-out: % of control remaining): 103%

O=S(=O)(O)c1cc(O)c2c(N=Nc3c(S(=O)(=O)O)cc4cc(S(=O)(=O)O)cc(O)c4c3O)cc(S(=O)(=O)O)cc2c1 [Beryllon II]
remaining activity at 3.75 µM ([1]; Well no.=7982, high concentration screen, read-out: % of control remaining): 93.7%
remaining activity at 1.25 µM ([2]; Well no.=7982, low concentration screen, read-out: % of control remaining): 92.8%

CC(C)C[C@H](NC(=O)[C@@H](O)[C@H](N)Cc1ccccc1)C(=O)O [Bestatin hydrochloride]
remaining activity at 3.75 µM ([1]; Well no.=273, high concentration screen, read-out: % of control remaining): 97.1%
remaining activity at 1.25 µM ([2]; Well no.=273, low concentration screen, read-out: % of control remaining): 96.2%

CC(C)C[C@H](NC(=O)[C@@H](O)[C@H](N)Cc1ccccc1)C(=O)O [Bestatin]
remaining activity at 3.75 µM ([1]; Well no.=8068, high concentration screen, read-out: % of control remaining): 97.8%
remaining activity at 1.25 µM ([2]; Well no.=8068, low concentration screen, read-out: % of control remaining): 98.5%

CNCCc1ccccn1 [Betahistine 2HCl]
remaining activity at 3.75 µM ([1]; Well no.=5026, high concentration screen, read-out: % of control remaining): 98.9%
remaining activity at 1.25 µM ([2]; Well no.=5026, low concentration screen, read-out: % of control remaining): 97.2%

CNCCc1ccccn1 [Betahistine (dihydrochloride)]
remaining activity at 3.75 µM ([1]; Well no.=6621, high concentration screen, read-out: % of control remaining): 92.4%
remaining activity at 1.25 µM ([2]; Well no.=6621, low concentration screen, read-out: % of control remaining): 98.5%

C[N+](C)(C)CC=O [Betaine aldehyde chloride]
remaining activity at 3.75 µM ([1]; Well no.=125, high concentration screen, read-out: % of control remaining): 102%
remaining activity at 1.25 µM ([2]; Well no.=125, low concentration screen, read-out: % of control remaining): 96.6%

C[N+](C)(C)CC(=O)O [Betaine hydrochloride]
remaining activity at 3.75 µM ([1]; Well no.=77, high concentration screen, read-out: % of control remaining): 103%
remaining activity at 1.25 µM ([2]; Well no.=77, low concentration screen, read-out: % of control remaining): 101%

CCC(=O)OCC(=O)[C@@]1(OC(=O)CC)[C@@H](C)C[C@H]2[C@@H]3CCC4=CC(=O)C=C[C@]4(C)[C@@]3(F)[C@@H](O)C[C@@]21C [Betamethasone dipropionate]
remaining activity at 3.75 µM ([1]; Well no.=7091, high concentration screen, read-out: % of control remaining): 98.8%
remaining activity at 1.25 µM ([2]; Well no.=7091, low concentration screen, read-out: % of control remaining): 93.4%

CCCCC(=O)O[C@]1(C(=O)CO)[C@@H](C)C[C@H]2[C@@H]3CCC4=CC(=O)C=C[C@]4(C)[C@@]3(F)[C@@H](O)C[C@@]21C [Betamethasone valerate]
remaining activity at 3.75 µM ([1]; Well no.=5651, high concentration screen, read-out: % of control remaining): 97.2%
remaining activity at 1.25 µM ([2]; Well no.=5651, low concentration screen, read-out: % of control remaining): 94.9%

C[C@H]1C[C@H]2[C@@H]3CCC4=CC(=O)C=C[C@]4(C)[C@@]3(F)[C@@H](O)C[C@]2(C)[C@@]1(O)C(=O)CO [Betamethasone]
remaining activity at 3.75 µM ([1]; read-out: % of control remaining, Well no.=271, high concentration screen): 95.6%
remaining activity at 3.75 µM ([1]; read-out: % of control remaining, Well no.=2171, high concentration screen): 93.7%
remaining activity at 3.75 µM ([1]; read-out: % of control remaining, Well no.=6566, high concentration screen): 95.4%
remaining activity at 1.25 µM ([2]; read-out: % of control remaining, Well no.=271, low concentration screen): 97.7%
remaining activity at 1.25 µM ([2]; read-out: % of control remaining, Well no.=2171, low concentration screen): 93.5%
remaining activity at 1.25 µM ([2]; read-out: % of control remaining, Well no.=6566, low concentration screen): 94.8%

CC(C)NCC(O)COc1ccc(CCOCC2CC2)cc1 (stereo not shown) [Betaxolol (hydrochloride)]
remaining activity at 3.75 µM ([1]; Well no.=6849, high concentration screen, read-out: % of control remaining): 102%
remaining activity at 1.25 µM ([2]; Well no.=6849, low concentration screen, read-out: % of control remaining): 107%

CC(C)NCC(O)COc1ccc(CCOCC2CC2)cc1 (stereo not shown) [Betaxolol hydrochloride]
remaining activity at 3.75 µM ([1]; Well no.=175, high concentration screen, read-out: % of control remaining): 101%
remaining activity at 1.25 µM ([2]; Well no.=175, low concentration screen, read-out: % of control remaining): 102%

CC(C)NCC(O)COc1ccc(CCOCC2CC2)cc1 (stereo not shown) [Betaxolol.HCl]
remaining activity at 3.75 µM ([1]; Well no.=1735, high concentration screen, read-out: % of control remaining): 99.8%
remaining activity at 1.25 µM ([2]; Well no.=1735, low concentration screen, read-out: % of control remaining): 99.1%

CC(C)NCC(O)COc1ccc(CCOCC2CC2)cc1 (stereo not shown) [Betaxolol]
remaining activity at 3.75 µM ([1]; Well no.=6177, high concentration screen, read-out: % of control remaining): 97.1%
remaining activity at 1.25 µM ([2]; Well no.=6177, low concentration screen, read-out: % of control remaining): 104%

CC(C[N+](C)(C)C)OC(N)=O (stereo not shown) [Bethanechol (chloride)]
remaining activity at 3.75 µM ([1]; Well no.=7565, high concentration screen, read-out: % of control remaining): 92.1%
remaining activity at 1.25 µM ([2]; Well no.=7565, low concentration screen, read-out: % of control remaining): 99.8%

CC(C[N+](C)(C)C)OC(N)=O (stereo not shown) [Bethanechol chloride]
remaining activity at 3.75 µM ([1]; Well no.=322, high concentration screen, read-out: % of control remaining): 102%
remaining activity at 1.25 µM ([2]; Well no.=322, low concentration screen, read-out: % of control remaining): 102%

C=C(C)[C@@H]1CC[C@]2(CO)CC[C@]3(C)[C@H](CC[C@@H]4[C@@]5(C)CC[C@H](O)C(C)(C)[C@@H]5CC[C@]43C)[C@@H]12 [Betulin]
remaining activity at 3.75 µM ([1]; Well no.=3835, high concentration screen, read-out: % of control remaining): 101%
remaining activity at 1.25 µM ([2]; Well no.=3835, low concentration screen, read-out: % of control remaining): 103%

C=C(C)[C@@H]1CC[C@]2(C(=O)O)CC[C@]3(C)[C@H](CC[C@@H]4[C@@]5(C)CC[C@H](O)C(C)(C)[C@@H]5CC[C@]43C)[C@@H]12 [Betulinic acid]
remaining activity at 3.75 µM ([1]; Well no.=3089, high concentration screen, read-out: % of control remaining): 101%
remaining activity at 3.75 µM ([1]; Well no.=6646, high concentration screen, read-out: % of control remaining): 100%
remaining activity at 1.25 µM ([2]; Well no.=3089, low concentration screen, read-out: % of control remaining): 102%
remaining activity at 1.25 µM ([2]; Well no.=6646, low concentration screen, read-out: % of control remaining): 105%

C=C(c1ccc(C(=O)O)cc1)c1cc2c(cc1C)C(C)(C)CCC2(C)C [Bexarotene]
remaining activity at 3.75 µM ([1]; Well no.=1814, high concentration screen, read-out: % of control remaining): 94.9%
remaining activity at 1.25 µM ([2]; Well no.=1814, low concentration screen, read-out: % of control remaining): 93.1%
